Results on 19 compounds are retold here after ChEMBL document CHEMBL4665789, “Discovery of Novel pERK1/2- or β-Arrestin-Preferring 5-HT Receptor-Biased Agonists: Diversified Therapeutic-like versus Side Effect Profile” (J Med Chem, 2020).

The source made the active and inactive calls. The calls are words filed in the database; no cut-off is given here.

Data set [1] concerns the target T1, Adrenergic receptor alpha-1 (Rattus norvegicus, UniProt P15823+P23944+P43140).
T1 sequence (P15823 whole entry): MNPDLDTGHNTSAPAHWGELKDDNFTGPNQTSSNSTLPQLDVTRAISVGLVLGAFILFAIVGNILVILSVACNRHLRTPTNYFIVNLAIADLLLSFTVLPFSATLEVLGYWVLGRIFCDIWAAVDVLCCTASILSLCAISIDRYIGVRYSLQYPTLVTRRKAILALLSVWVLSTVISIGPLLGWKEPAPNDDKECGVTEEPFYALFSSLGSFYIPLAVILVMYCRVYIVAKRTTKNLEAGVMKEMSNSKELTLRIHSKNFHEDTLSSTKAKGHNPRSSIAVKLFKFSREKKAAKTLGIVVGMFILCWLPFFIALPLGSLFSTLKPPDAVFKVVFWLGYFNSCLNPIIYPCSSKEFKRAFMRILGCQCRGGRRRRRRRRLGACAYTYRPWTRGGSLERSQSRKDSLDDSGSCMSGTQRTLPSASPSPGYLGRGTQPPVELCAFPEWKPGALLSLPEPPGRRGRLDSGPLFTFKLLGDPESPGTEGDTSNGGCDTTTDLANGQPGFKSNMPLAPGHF
T1 sequence (P23944 whole entry): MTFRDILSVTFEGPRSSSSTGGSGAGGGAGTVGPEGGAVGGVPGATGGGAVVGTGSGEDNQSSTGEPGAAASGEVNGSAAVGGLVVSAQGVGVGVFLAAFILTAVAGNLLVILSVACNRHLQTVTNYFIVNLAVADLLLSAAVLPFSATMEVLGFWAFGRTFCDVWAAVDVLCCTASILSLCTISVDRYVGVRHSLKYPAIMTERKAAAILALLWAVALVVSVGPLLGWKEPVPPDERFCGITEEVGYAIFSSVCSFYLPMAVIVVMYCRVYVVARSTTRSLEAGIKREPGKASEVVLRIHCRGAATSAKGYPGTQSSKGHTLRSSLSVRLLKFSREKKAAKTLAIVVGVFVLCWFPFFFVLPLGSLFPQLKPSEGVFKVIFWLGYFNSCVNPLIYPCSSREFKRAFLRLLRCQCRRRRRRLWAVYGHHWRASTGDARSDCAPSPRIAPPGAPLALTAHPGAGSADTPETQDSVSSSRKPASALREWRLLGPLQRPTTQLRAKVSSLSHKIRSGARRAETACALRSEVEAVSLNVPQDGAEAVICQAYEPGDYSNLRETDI
T1 sequence (P43140 whole entry): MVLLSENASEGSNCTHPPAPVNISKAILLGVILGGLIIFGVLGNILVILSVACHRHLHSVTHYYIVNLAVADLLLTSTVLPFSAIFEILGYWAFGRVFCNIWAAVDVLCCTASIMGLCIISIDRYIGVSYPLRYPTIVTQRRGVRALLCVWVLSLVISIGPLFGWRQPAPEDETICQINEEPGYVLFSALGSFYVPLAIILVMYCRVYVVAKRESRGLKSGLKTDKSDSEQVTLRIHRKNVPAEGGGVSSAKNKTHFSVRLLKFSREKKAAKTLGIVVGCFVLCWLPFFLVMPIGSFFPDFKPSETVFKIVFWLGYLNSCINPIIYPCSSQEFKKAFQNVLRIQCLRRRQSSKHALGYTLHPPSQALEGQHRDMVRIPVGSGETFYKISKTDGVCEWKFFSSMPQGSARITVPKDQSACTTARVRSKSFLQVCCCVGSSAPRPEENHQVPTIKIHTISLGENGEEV
Description: Displacement of [3H]prazosin from alpha1 adrenergic receptor in rat cortex membranes measured after 30 mins by Microbeta2 scintillation counting method. The data set is classed as cell membranes.

Data set [2] can be described thus: Toxicity in po dosed Wistar rat assessed as induction of lower lip retraction at 2 times MED treated for 10 mins. Conditions: in vivo. The data set is classed as organism-based.
Data set [3] can be described thus: Drug uptake in Wistar rat serum at 0.31 to 1.25 mg/kg, po by HPLC analysis. The data set is classed as ADME, organism-based. Conditions: in vivo, dose 0.31-1.25 mg/kg.
The nature of data set [4]: Drug uptake in Wistar rat brain at 0.31 to 1.25 mg/kg, po by HPLC analysis. In kind it is ADME, organism-based. The note with it: in vivo, dose 0.31-1.25 mg/kg.
Data set [5] is described as follows: Permeability of the compound at 100 uM measured after 40 mins by PAMPA. The data set is classed as ADME. Conditions: read-out: permeability.
A short description of data set [6]: Hepatotoxicity in human HepG2 cells assessed as concentration required to show 50% cell viability measured after 72 hrs by celltiter 96 aqueous non-Radioactive cell proliferation assay. The data set is classed as toxicity, cell-based. The note with it: read-out: Activity.
The test system of data set [7] is Rattus norvegicus. In words: Antidepressant activity in Wistar rat assessed as reduction in immobility time at […], po treated 60 mins prior to testing and measured during the 5 min test period in presence of WAY100635 by Porsolt-forced swim test. In kind it is functional, organism-based.
The test system of data set [8] is Rattus norvegicus. Description: Antidepressant activity in po dosed Wistar rat assessed as reduction in immobility time treated 60 mins prior to testing and measured during the 5 min test period by Porsolt-forced swim test. The data set is classed as functional. The note with it: 1 h, read-out: MED.
In data set [9] the target is T2, 5-hydroxytryptamine receptor 1A (Homo sapiens, UniProt P08908).
T2 sequence (P08908 whole entry): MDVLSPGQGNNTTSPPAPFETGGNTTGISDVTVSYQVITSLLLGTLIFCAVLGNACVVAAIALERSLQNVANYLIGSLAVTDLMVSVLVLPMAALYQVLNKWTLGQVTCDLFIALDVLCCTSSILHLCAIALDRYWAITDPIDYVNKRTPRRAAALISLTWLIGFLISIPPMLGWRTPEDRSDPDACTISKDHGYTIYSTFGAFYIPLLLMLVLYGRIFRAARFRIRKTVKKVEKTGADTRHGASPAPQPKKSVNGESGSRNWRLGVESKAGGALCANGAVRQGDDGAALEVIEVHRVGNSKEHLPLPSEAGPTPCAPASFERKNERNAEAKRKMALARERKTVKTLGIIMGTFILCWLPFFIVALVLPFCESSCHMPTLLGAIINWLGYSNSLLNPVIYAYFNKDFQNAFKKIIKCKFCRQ
In words: Biased agonist activity at human 5-HT1A receptor stably expressed in CHO-K1 cells co-expressing Galpha16/GPCR assessed as increase in calcium mobilization measured for 30 secs in presence of coelenterazine by aequorin-reporter gene based luminescence assay. The data set is classed as functional, cell-based.

Data set [10] has as its target T2, 5-hydroxytryptamine receptor 1A. In words: Displacement of [3H]8-OH-DPAT from human 5-HT1A receptor stably expressed in CHO-K1 cell membranes measured after 60 mins by Microbeta2 scintillation counting method.
The target is the same in data set [11]. Description: Biased agonist activity at human 5-HT1A receptor stably expressed in CHO-K1 cells assessed as increase in ERK1/2 phosphorylation after 15 mins by Alphalisa assay.
The target is the same in data set [12]. In words: Biased agonist activity at human 5-HT1A receptor stably expressed in CHO-K1 cells assessed as inhibition of forskolin-induced cAMP accumulation after 40 mins by LANCE Ultra cAMP kit-based TR-FRET assay. The data set is classed as functional, cell-based.
Data set [13] concerns the target D(2) dopamine receptor (Homo sapiens, UniProt P14416). In words: Displacement of [3H]methylspiperone from human D2 receptor stably expressed in CHO-K1 cell membranes measured after 60 mins by Microbeta2 scintillation counting method.
Data set [14] has as its target T2, 5-hydroxytryptamine receptor 1A. Description: Biased agonist activity at Gal4-VP16 transcription factor linked human 5-HT1A receptor expressed in human U2OS cells assessed as induction of beta-arrestin2 recruitment measured after 5 hrs by Tango assay. In kind it is cell-based.
Data set [15] can be described thus: Stability in rat liver microsomes assessed as parent compound remaining at 50 uM preincubated for 5 mins followed by NADPH addition and measured after 2 hrs by LC-MS analysis. The data set is classed as ADME, Microsome. Conditions: time 125 min, read-out: Stabilty.
The nature of data set [16]: Drug uptake in Wistar rat brain at 0.04 to […], po by HPLC analysis. In kind it is ADME, organism-based. The note with it: in vivo, dose 0.04-0.63 mg/kg.
Data set [17] is described as follows: Toxicity in po dosed Wistar rat assessed as induction of lower lip retraction at 4 times MED treated for 10 mins. In kind it is organism-based. The note with it: in vivo.
A short description of data set [18]: Drug uptake in Wistar rat serum at 0.04 to […], po by HPLC analysis. The data set is classed as ADME, organism-based. The note with it: in vivo, dose 0.04-0.63 mg/kg.

Sequence of D(2) dopamine receptor (P14416 whole entry, the tested form may be a part): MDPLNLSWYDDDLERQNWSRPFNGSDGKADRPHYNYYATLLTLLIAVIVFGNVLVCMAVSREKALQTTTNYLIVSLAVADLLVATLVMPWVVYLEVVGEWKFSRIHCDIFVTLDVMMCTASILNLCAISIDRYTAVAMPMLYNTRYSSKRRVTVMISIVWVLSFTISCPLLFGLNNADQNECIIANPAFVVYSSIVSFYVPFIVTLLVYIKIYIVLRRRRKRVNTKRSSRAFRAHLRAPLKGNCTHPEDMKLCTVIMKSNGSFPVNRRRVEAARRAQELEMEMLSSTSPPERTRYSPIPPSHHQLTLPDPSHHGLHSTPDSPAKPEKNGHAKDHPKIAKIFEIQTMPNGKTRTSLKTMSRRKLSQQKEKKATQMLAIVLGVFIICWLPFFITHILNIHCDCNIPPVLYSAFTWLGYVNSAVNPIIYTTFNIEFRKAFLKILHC

`O=C(c1ccc(F)c(Cl)c1)N1CCC(F)(CNCCOc2ccccc2F)CC1` showed a pKi in data set [1] below 6.
On to `O=C(c1ccc(F)c(Cl)c1)N1CCC(F)(CNCCOc2cccc3[nH]ccc23)CC1`, for which the Activity entry in [2] is on record as “Toxic”. Besides, the Drug uptake result in data set [3] and in [4] was “Active” each time. Besides, in data set [5], the Papp at 40 min, 100 µM came to 4.7 ×10⁻⁶ cm/s. Further, the CC50 at 72 h in data set [6] is above 50000 nM. In addition, the result in data set [7] was inactive. Also, in data set [8], the minimal effective dose amounted to 0.63 mg/kg.
Turning to `COc1ccc(OCCNCC2(F)CCN(C(=O)c3ccc(Cl)c(Cl)c3)CC2)cc1`, the pKi in data set [1] is on record as below 6.
For `O=C(c1ccc(F)c(Cl)c1)N1CCC(F)(CNCCOc2cccc3c2CCN3)CC1`, the EC50 in [9] is 3.55 nM; in data set [11], 0.00363 nM; in data set [12], 0.0132 nM; in data set [14] it was 0.00513 nM. The compound further had a pKi in [1] of 6.36. Further, the Ki is 0.0447 nM in data set [10] and above 1000 nM in data set [13].
On to `O=C(c1ccc(F)c(Cl)c1)N1CCC(F)(CNCCOc2cccc3cccnc23)CC1`, for which the remaining at 2 h, 50 µM in [15] was 73%.
In turn, `O=C(c1ccc(F)c(Cl)c1)N1CCC(F)(CNCCOc2cccc(C(F)(F)F)c2)CC1` gave a pKi in data set [1] below 6.
The same measure, in the same setting: for `CC(=O)Nc1cccc(OCCNCC2(F)CCN(C(=O)c3ccc(Cl)c(Cl)c3)CC2)c1` the value was below 6.
On the same count and under the same terms, with `CN(C)c1cccc(OCCNCC2(F)CCN(C(=O)c3ccc(F)c(Cl)c3)CC2)c1` the figure was below 6.
`O=C(c1ccc(F)c(Cl)c1)N1CCC(F)(CNCCOc2ccccc2)CC1`: in [5], the Papp at 40 min, 100 µM worked out at 8.6 ×10⁻⁶ cm/s. Moreover, the CC50 at 72 h in data set [6] is above 50000 nM. For the same compound, the remaining at 2 h, 50 µM in [15] amounted to 54%.
Regarding `COc1cccc2c1C(=O)c1c(O)c3c(c(O)c1C2=O)C[C@@](O)(C(=O)CO)C[C@@H]3O[C@H]1C[C@H](N)[C@H](O)[C@H](C)O1` [DOXORUBICIN], the CC50 at 72 h in data set [6] is below 1000 nM.
Compound `O=C(c1ccc(F)c(Cl)c1)N1CCC(F)(CNCCOc2ccccc2Cl)CC1` showed a pKi in data set [1] below 6.
`O=C(c1ccc(F)c(Cl)c1)N1CCC(F)(CNCCOc2ccccn2)CC1`: in [15], the remaining at 2 h, 50 µM came to 54%.
On to `Cc1cnc(CNCC2(F)CCN(C(=O)c3ccc(F)c(Cl)c3)CC2)nc1`, for which the EC50 in data set [9] is 302 nM. Also, in [1], the pKi is on record as below 6.
Consider `O=C(c1ccc(Cl)c(Cl)c1)N1CCC(F)(CNCCOc2cccc(F)c2)CC1`, for which the EC50 in data set [9] is 646 nM; in [11] it was 20 nM; in data set [12] it was 39.8 nM; in data set [14], 617 nM. Besides, the pKi in data set [1] worked out at 6.2. In addition, the Ki is 0.0204 nM in [10] and above 1000 nM in data set [13].
Regarding `CC(=O)Nc1cccc(OCCNCC2(F)CCN(C(=O)c3ccc(F)c(Cl)c3)CC2)c1`, the remaining at 2 h, 50 µM in data set [15] is 73%.
In data set [1], `O=C(c1ccc(Cl)c(Cl)c1)N1CCC(F)(CNCCOc2cccc(Cl)c2)CC1` yielded a pKi below 6. Further, the Ki is 0.0251 nM in [10] and above 1000 nM in [13].
Turning to `CC1(C)Cc2cccc(OCCNCC3(F)CCN(C(=O)c4ccc(F)c(Cl)c4)CC3)c2O1`, the pKi in data set [1] came to 7.76.
Regarding `N#CC(C#N)=NNc1cccc(Cl)c1` [CARBONYL CYANIDE M-CHLOROPHENYLHYDRAZONE], the CC50 at 72 h in data set [6] is below 10000 nM.
`CNc1ccccc1OCCNCC1(F)CCN(C(=O)c2ccc(F)c(Cl)c2)CC1`: the Drug uptake entry in [16] and in data set [18] was “Active” throughout. Moreover, the Activity entry in data set [17] is on record as “Non-Toxic”. The Papp at 40 min, 100 µM in [5] came out at 6.7 ×10⁻⁶ cm/s. The compound further showed a pKi in data set [1] of 6.04. The minimal effective dose in [8] is 0.16 mg/kg. The remaining at 2 h, 50 µM in data set [15] came to 54%.
